Test systems include ACHN; CAKI-1; COLO 205; DU-145; HCC 2998; HCT-15; HT-29; IGROV-1; KM12; MDA-MB-435; MOLT-4; NCI-H226; NCI-H23; OVCAR-3; SK-MEL-28; SK-OV-3; T47D; U-251; UACC-257; UACC-62.
What all share (assay): NCI anticancer screen, dose series, 48 h

SMILES strings stand for the structures.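 Values below derive from 48-hour exposures of cells grown in 96-well plates, with endpoints linearly interpolated between the two concentrations bracketing the appropriate inhibition level. Here, GI50 denotes the concentration required for 50% inhibition of growth.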 Active and inactive are the calls of the source. No stated cut-off is given here; in the data, active = GI50 up to about 1.1 µM and inactive = higher.

This note sets out measurements from ChEMBL document CHEMBL1201862, “PubChem BioAssay data set” (2004).

For `Cc1ccc(CC[PH](=O)CCc2ccc(C)nc2)cn1`, the GI50 in the test with ACHN is > 100 µM (inactive); with CAKI-1, > 100 µM (inactive); with COLO 205, > 100 µM (inactive); in the test on DU-145, > 100 µM (inactive); in the test with HCC 2998 it was > 100 µM (inactive); with HCT-15, over 100 µM. In addition, the GI50 in the test on HT-29, in the test on IGROV-1, in the test with KM12, in the test with MDA-MB-435, in the test on MOLT-4 and with NCI-H226 was > 100 µM (inactive) in each case. In addition, the GI50 in the test with NCI-H23, in the test on OVCAR-3, with SK-MEL-28, in the test with SK-OV-3, in the test on T47D and in the test with U-251 was > 100 µM (inactive) each time. The GI50 in the test on UACC-257 and in the test on UACC-62 was > 100 µM (inactive) in each case.

Take `CCOC(=O)C(C(=O)OCC)=C1NC2(c3ccccc3Nc3ccc(C)cc32)C(C#N)S1` (stereo not given): the GI50 in the test on ACHN was 3.47 µM (inactive); with CAKI-1 it was 11.8 µM (inactive); in the test with COLO 205, 4.04 µM (inactive); in the test with DU-145, 11.3 µM (inactive); with HCC 2998, 3.57 µM (inactive); in the test with HCT-15, 6 µM. Besides, the GI50 is 3.56 µM (inactive) with HT-29; 7.36 µM (inactive) in the test on IGROV-1; 4.43 µM (inactive) in the test with KM12; 5.65 µM (inactive) with MDA-MB-435; 2.4 µM (inactive) with MOLT-4; 11.5 µM (inactive) in the test with NCI-H226. For the same compound, the GI50 with NCI-H23 was 3.56 µM (inactive); with OVCAR-3 it was 3.39 µM (inactive); in the test on SK-MEL-28 it was 18.2 µM (inactive); in the test on SK-OV-3 it was 13.4 µM (inactive); with T47D, 4.39 µM (inactive); in the test with U-251 it was 5.57 µM (inactive). Further, the GI50 is 11.3 µM (inactive) with UACC-257 and 9.48 µM (inactive) in the test with UACC-62.

In the case of `ClCc1nc2cc(Cl)ccc2o1`, the GI50 in the test with ACHN was 1.72 µM (inactive); in the test on CAKI-1 it was 1.65 µM (inactive); in the test on COLO 205, 2.65 µM (inactive); in the test on DU-145, 6.21 µM (inactive); in the test with HCC 2998 it was 2.26 µM (inactive); with HCT-15, 3.39 µM. Moreover, the GI50 in the test with HT-29 was 2.54 µM (inactive); in the test on IGROV-1, 1.61 µM (inactive); in the test with KM12, 12.3 µM (inactive); with MDA-MB-435, 2.6 µM (inactive); with MOLT-4, 2.19 µM (inactive); with NCI-H226, 15.9 µM (inactive). Besides, the GI50 with NCI-H23 is 8.99 µM (inactive); in the test with OVCAR-3, 1.85 µM (inactive); in the test on SK-MEL-28 it was 4.44 µM (inactive); in the test with SK-OV-3, 14.8 µM (inactive); in the test with T47D, 2.44 µM (inactive); in the test on U-251 it was 3.15 µM (inactive). In addition, the GI50 in the test on UACC-257 is 9.16 µM (inactive); in the test on UACC-62, 8.15 µM (inactive).

Consider `Cc1cc2c(cc1-c1cc3c(cc1C)C(C(C)C)=C(O)C(=O)/C3=C\Nc1cccc3c(N)cccc13)/C(=C/Nc1cccc3c(N)cccc13)C(=O)C(O)=C2C(C)C`, for which the GI50 in the test on ACHN is > 100 µM (inactive); in the test with CAKI-1, > 100 µM (inactive); in the test on COLO 205 it was > 100 µM (inactive); in the test on DU-145 it was > 100 µM (inactive); with HCC 2998 it was > 100 µM (inactive); in the test with HCT-15, over 100 µM. Besides, the GI50 in the test on HT-29 was > 100 µM (inactive); in the test on IGROV-1, > 100 µM (inactive); in the test with KM12 it was > 100 µM (inactive); in the test on MDA-MB-435, > 100 µM (inactive); in the test with MOLT-4, 37.4 µM (inactive); in the test on NCI-H226, > 100 µM (inactive). Moreover, the GI50 is > 100 µM (inactive) in the test with NCI-H23; > 100 µM (inactive) in the test with OVCAR-3; > 100 µM (inactive) in the test with SK-MEL-28; > 100 µM (inactive) in the test with SK-OV-3; > 100 µM (inactive) in the test on T47D; 49.1 µM (inactive) with U-251. Besides, the GI50 in the test with UACC-257 and in the test on UACC-62 was > 100 µM (inactive) each time.
